# Measurements: patent publication US10874684B2, “Liponucleotide-based therapy for ARDS” (Ohio State Innovation Foundation, priority 2016, dated 2020)
# “Also recorded” adds a separate entry of the source. Marks after values point to notes of the source that are not given here.
# Tests used:
# [1] = test system: influenza A/WSN/33 (H1N1)-infected mice; assay: Effect of influenza infection and i.p. liponucleotide treatment on lung function; format: in vivo, mouse; details: for CST / HR (bpm) / RBASAL / SaO2 (%) / WET:DRY: day 6
# Text: CDP-choline improved oxygenation. SaO2 increased from approximately 85% to approximately 96%. This is equivalent to an increase in PaO2 from approximately 65 mmHg to approximately 85 mmHg. It is also equivalent to an increase in O2 carrying capacity of blood (CaO2) from approximately 88% to approximately 97% of normal. Patients with an SaO2 of 96% or a […] would not require additional treatment
# [2] = test system: ATII cells from influenza A/WSN/33 (H1N1)-infected mice; assay: Effect of influenza infection and CDP-choline treatment on ATII cell ultrastructure (transmission electron micrographs); format: in vivo, mouse
# Text: FIG. 14 is a group of three transmission electron micrographs showing effects of CDP-choline treatment on ultrastructure of ATII cell lamellar bodies (composed of surfactant lipids and proteins). Relative to mock-infected controls, lamellar bodies in ATII cells from influenza A/WSN/33 (H1N1)-infected mice are smaller and have disordered lamellae.
# FIG. 15 is a group of 3 transmission electron micrographs showing effects of influenza infection on ultrastructure of ATII cell mitochondria (Mi). Relative to mock-infected controls (left), Mi in ATII cells from A/WSN/33 (H1N1)-infected mice (center) are fewer in number, less electron dense, and have disordered membranes and cristae.
# [3] = test system: influenza-infected mice; assay: Effect of influenza infection and CDP-choline treatment on lung inflammation; format: in vivo; details: day 6 flu; 100 μg/mouse i.p. daily from 1-5 days post-infection
# [4] = test system: alveolar type II (ATII) epithelial cells isolated 6 days post-influenza infection; assay: Effect of influenza infection and CDP-choline treatment on mitochondrial function (Seahorse MitoStress test on isolated ATII cells); format: in vivo, mouse
# Description: FIG. 17 is a plot showing effect of daily i.p. treatment with CDP-choline (CDP-CHO, 100 μg/mouse) from 1-5 days post-influenza infection on basal O2 consumption rate (OCR) of alveolar type II (ATII) epithelial cells isolated at 6 days post-mock infection or 6 days post-influenza infection and OCR after subsequent treatment of the same ATII cells with oligomycin (1 μM). **=P<0.005, #=P<0.001.
# FIG. 18 is a plot showing effect of daily i.p. treatment with CDP-choline (CDP-CHO, 100 μg/mouse) from 1-5 days post-influenza infection on ATP production, non-mitochondrial (non-mt) respiration, and proton (H^+) leak of alveolar type II (ATII) epithelial cells isolated at 6 days post-mock infection or 6 days post-influenza infection. *=P<0.05, #=P<0.001.
# [5] = test system: mice with ARDS induced by intranasal bleomycin; assay: Bleomycin-induced ARDS in mice, i.p. liponucleotide treatment; format: in vivo; details: day 7 after intranasal bleomycin 0.1 mg/mouse; daily i.p. from days 1-6
# [6] = test system: influenza-infected mice; assay: Treatment with CDP-choline precursors (choline, CTP) in influenza-infected mice, arterial oxygenation; format: in vivo; details: day 6 post-influenza infection; daily i.p. 100 μg/mouse from 1-5 days post-infection; compared with CDP-choline
# Description: FIG. 16 is a plot showing effect of daily i.p. treatment with choline (100 μg/mouse), cytidine triphosphate (CTP, 100 μg/mouse), and choline+CTP from 1-5 days post-influenza infection on mouse O2 sats (SaO2) at day 6 post-influenza infection.
# [7] = influenza-infected mice, 100 μg/mouse i.p. on day 5 only
# [8] = influenza-infected mice, i.p. daily from 1-5 days post-infection
# [9] = influenza-infected mice, i.p. daily from 1-5 days post-infection, CDP-CHO/CDP-ETH 100 μg/mouse, CDP-DAG 10 μg/mouse
# [10] = day 6 flu, 100 μg/mouse i.p. daily from 1-5 days post-infection
# [11] = ATII cells isolated 6 days post-influenza infection, Seahorse MitoStress, effect on influenza-induced impairment
structure (smiles),measurement,setting,value
"C[N+](C)(C)CCOP(=O)(O)OP(=O)(O)OC[C@H]1O[C@@H](n2ccc(N)nc2=O)C(O)C1O (some centres unmarked) [CDP-CHO, Cytidine diphosphate-choline]",PaO2 equivalent after treatment,"[1]; equivalent of SaO2 increase, from approximately 65 mmHg",approximately 85 mmHg
same,O2 carrying capacity of blood (CaO2) after treatment,"[1]; equivalent of SaO2 increase, from approximately 88%",approximately 97 % of normal
same,cardiac function,[1]; influenza-infected mice,improved cardiac function
same,effects of single dose treatment late in infection versus daily treatment,[1]; influenza-infected mice,as good as those of daily treatment
same,lung function,[1]; influenza-infected mice,better lung function
same,pulmonary edema,[1]; influenza-infected mice,reduced pulmonary edema
same,CST,[1]; [7],0.05 ± 0.006
same,HR (bpm),[1]; [7],550 ± 10 bpm
same,RBASAL,[1]; [7],1.63 ± 0.22
same,SaO2 (%),[1]; [7],92.9 ± 1.5 %
same,WET:DRY,[1]; [7],6.2 ± 0.2
same,CST,[1]; [8],0.05 ± 0.002
same,HR (bpm),[1]; [8],570 ± 10 bpm
same,RBASAL,[1]; [8],1.96 ± 0.12
same,WET:DRY,[1]; [8],6.2 ± 0.4
same,SaO2 (%),[1]; [9],93.5 ± 1.0 %
same,SaO2 after treatment,"[1]; influenza-infected mice, increased from approximately 85%",approximately 96%
same,ATII CELL AREA (μm^2),[2]; [10],53.64 ± 5.63* μm^2
same,LAMELLAR BODIES/CELL,[2]; [10],8.1 ± 1.16
same,LAMELLAR BODY AREA (μm^2),[2]; [10],0.41 ± 0.04* μm^2
same,MITOCHONDRIAL/CELL,[2]; [10],14.5 ± 1.78
same,MIT[…] (μm^2),[2]; [10],0.34 ± 0.01* μm^2
same,ATII cell lamellar body morphology,"[2]; transmission electron micrographs, A/WSN/33 (H1N1)-infected mice",improves lamellar body morphology
same,ATII cell mitochondria (Mi) morphology,"[2]; transmission electron micrographs, A/WSN/33 (H1N1)-infected mice, listed as CDP-choline",more electron-dense and have more normal cristae; also recorded: display normal morphology
same,BALF ALVEOLAR MACS (×10^6/ml),[3],1.08 ± 0.21 ×10^6/ml
same,BALF NEUTROPHILS (×10^6/ml),[3],0.45 ± 0.07 ×10^6/ml
same,BALF PC,[3],1.61 ± 0.45
same,VIRAL TITER (log PFU/g),[3],5.32 ± 0.07 log PFU/g
same,"basal O2 consumption rate (OCR), mitochondrial oxidative phosphorylation","[4]; ATII cells isolated 6 days post-influenza infection, 100 μg/mouse i.p. daily days 1-5, effect on influenza-induced impairment",reversed
same,ATP production,[4]; [11],reversed
same,non-mitochondrial (non-mt) respiration,[4]; [11],reversed
same,proton (H+) leak (coupling efficiency),[4]; [11],reversed
same,OCR after oligomycin (ATP synthase activity),"[4]; ATII cells isolated 6 days post-influenza infection, oligomycin 1 μM, effect on influenza-induced impairment",reversed
same,MITOCHONDRIAL MEMBRANE POTENTIAL (ψm; DilC1(5) MCF),[4]; [10],10.14 ± 2.3*
same,MIT[…] PRODUCTION,[4]; [10],36.91 ± 6.82#
same,"mouse O2 sats (SaO2), hypoxemia",[5],can attenuate hypoxemia
same,"mouse weight loss (% of starting body weight), cachexia",[5],no such beneficial effect
"CCCCCCCCCCCCCCCC(=O)OC[C@H](COP(=O)(O)OP(=O)(O)OC[C@H]1O[C@@H](n2ccc(N)nc2=O)[C@H](O)[C@@H]1O)OC(=O)CCCCCCCCCCCCCCC [CDP-DAG, CDP-diacylglycerol]",HR (bpm),[1]; [8],600 ± 10 bpm
same,WET:DRY,[1]; [8],5.8 ± 0.1
same,SaO2 (%),[1]; [9],95.2 ± 1.6 %
"NCCOP(=O)(O)OP(=O)(O)OC[C@H]1O[C@@H](n2ccc(N)nc2=O)[C@H](O)[C@@H]1O [CDP-ETH, CDP-ethanolamine]",HR (bpm),[1]; [8],540 ± 20 bpm
same,WET:DRY,[1]; [8],6.5 ± 0.4
same,SaO2 (%),[1]; [9],91.1 ± 1.5%
"Nc1ccn([C@@H]2O[C@H](COP(=O)(O)OP(=O)(O)OP(=O)(O)O)[C@@H](O)[C@H]2O)c(=O)n1 [CTP, cytidine triphosphate]","beneficial effect on arterial oxygenation, mouse O2 sats (SaO2)",[6],cannot be reproduced
